# Measured values reported in patent publication US6410530B1, “Substituted 1,2,3,4-tetrahydronaphthalene derivatives” (AstraZeneca AB, priority 1996, dated 2002).
row,melting point,SMILES
1,152 to 154 °C,CC(=O)N[C@@H]1CCc2cccc(N3CCN(C)CC3)c2C1
2,142 to 143 °C,CCN1CCN(c2cccc3c2C[C@H](NC(C)=O)CC3)CC1
3,158 to 159 °C,CN1CCN(c2cccc3c2C[C@H](NC(=O)C(F)(F)F)CC3)CC1
4,135 to 137 °C,CN1CCN(c2cccc3c2C[C@H](NS(C)(=O)=O)CC3)CC1
5,131 to 132 °C,CCCC(=O)N[C@@H]1CCc2cccc(N3CCN(C)CC3)c2C1
6,139 to 140 °C,"CCCN1CCN(c2cccc3c2C[C@H](NC(C)=O)CC3)CC1 [Example 24, (R)-N-[8-(4-Propylpiperazin-1-yl)-1,2,3,4-tetrahydro-2-naphthyl]acetamide]"
7,118 to 120 °C,"CCCCN1CCN(c2cccc3c2C[C@H](NC(C)=O)CC3)CC1 [Example 27, (R)-N-[8-(4-Butylpiperazin-1-yl)-1,2,3,4-tetrahydro-2-naphthyl]acetamide]"
8,119 to 120 °C,"CCCCCN1CCN(c2cccc3c2C[C@H](NC(C)=O)CC3)CC1 [Example 30, (R)-N-[8-(4-Pentylpiperazin-1-yl)-1,2,3,4-tetrahydro-2-naphthyl]acetamide]"
9,117 to 118 °C,"CCCCCCN1CCN(c2cccc3c2C[C@H](NC(C)=O)CC3)CC1 [Example 33, (R)-N-[8-(4-Hexylpiperazin-1-yl)-1,2,3,4-tetrahydro-2-naphthyl]acetamide]"
10,183 to 184 °C,"CN1CCN(c2cccc3c2C[C@H](NC(=O)C2CCCCC2)CC3)CC1 [Example 36, (R)-N-[8-(4-Methylpiperazin-1-yl)-1,2,3,4-tetrahydro-2-naphthyl]cyclohexanecarboxamide]"
11,232 to 233 °C,"CN1CCN(c2cccc3c2C[C@H](NC(=O)c2ccc(-c4ccccc4)cc2)CC3)CC1 [Example 44, (R)-N-[8-(4-Methylpiperazin-1-yl)-1,2,3,4-tetrahydro-2-naphthyl]-1,1′-biphenyl-4-carboxamide]"
12,175 to 176 °C,"CN1CCN(c2cccc3c2C[C@H](NC(=O)c2csc(-c4ccccc4)n2)CC3)CC1 [Example 46, (R)-N-[8-(4-Methylpiperazin-1-yl)-1,2,3,4-tetrahydro-2-naphthyl]-2-phenylthiazole-4-carboxamide]"
13,187 to 188 °C,"CN1CCN(c2cccc3c2C[C@H](NC(=O)c2csc(-c4ccncc4)n2)CC3)CC1 [Example 47, (R)-N-[8-(4-Methylpiperazin-1-yl)-1,2,3,4-tetrahydro-2-naphthyl]-2-(4-pyridyl)thiazole-4-carboxamide]"
14,195 to 196 °C,"CN1CCN(c2cccc3c2C[C@H](NC(=O)c2ccccc2)CC3)CC1 [Example 48, (R)-N-[8-(4-Methylpiperazin-1-yl)-1,2,3,4-tetrahydro-2-naphthyl]benzamide]"
15,186 to 187 °C,"COc1ccc(C(=O)N[C@@H]2CCc3cccc(N4CCN(C)CC4)c3C2)cc1 [Example 49, (R)-N-[8-(4-Methylpiperazin-1-yl)-1,2,3,4-tetrahydro-2-naphthyl]-4-methoxybenzamide]"
16,184 to 186 °C,"CN1CCN(c2cccc3c2C[C@H](NC(=O)c2ccc(C#N)cc2)CC3)CC1 [Example 50, (R)-N-[8-(4-Methylpiperazin-1-yl)-1,2,3,4-tetrahydro-2-naphthyl]-4-cyanobenzamide]"
17,202 to 203 °C,"O=C(N[C@@H]1CCc2cccc(N3CCNCC3)c2C1)c1ccc(N2CCOCC2)cc1 [Example 53, (R)-N-[8-(Piperazin-1-yl)-1,2,3,4-tetrahydro-2-naphthyl]-4-morpholinobenzamide]"
18,230 to 231 °C,"CN1CCN(c2cccc3c2C[C@H](NC(=O)c2ccc(N4CCOCC4)cc2)CC3)CC1 [Example 54, (R)-N-[8-(4-Methylpiperazin-1-yl)-1,2,3,4-tetrahydro-2-naphthyl]-4-morpholinobenzamide]"
19,228 to 230 °C,"CN1CCN(c2cccc3c2C[C@@H](NC(=O)c2ccc(N4CCOCC4)cc2)CC3)CC1 [Example 55, (S)-N-[8-(4-Methylpiperazin-1-yl)-1,2,3,4-tetrahydro-2-naphthyl]-4-morpholinobenzamide]"
20,183 to 185 °C,"CCCN1CCN(c2cccc3c2C[C@H](NC(=O)c2ccc(N4CCOCC4)cc2)CC3)CC1 [Example 57, (R)-N-[8-(4-Propylpiperazin-1-yl)-1,2,3,4-tetrahydro-2-naphthyl]-4-morpholinobenzamide]"

row,melting point,SMILES
1,172 to 175 °C,"Cc1cc(C(=O)N[C@@H]2CCc3cccc(N4CCN(C)CC4)c3C2)ccc1N1CCOCC1 [Example 61, (R)-N-[8-(4-Methylpiperazin-1-yl)-1,2,3,4-tetrahydro-2-naphthyl]-3-methyl-4-morpholinobenzamide]"
2,224 to 226 °C,"CN1CCN(c2cccc3c2C[C@H](NC(=O)c2ccc(C4CCCCC4)cc2)CC3)CC1 [Example 63, (R)-N-[8-(4-Methylpiperazin-1-yl)-1,2,3,4-tetrahydro-2-naphthyl]-4-cyclohexylbenzamide]"
3,203 to 204 °C,"CN1CCN(c2cccc3c2C[C@H](NC(=O)c2ccc(C(F)(F)F)cc2)CC3)CC1 [Example 65, (R)-N-[8-(4-Methylpiperazin-1-yl)-1,2,3,4-tetrahydro-2-naphthyl]-4-trifluoromethylbenzamide]"
4,202 to 204 °C,"CN1CCN(c2cccc3c2C[C@@H](NC(=O)c2ccc(C(F)(F)F)cc2)CC3)CC1 [Example 66, (S)-N-[8-(4-Methylpiperazin-1-yl)-1,2,3,4-tetrahydro-2-naphthyl]-4-trifluoromethylbenzamide]"
5,199 to 200 °C,"CN1CCN(c2cccc3c2C[C@H](NC(=O)c2ccc(OS(C)(=O)=O)cc2)CC3)CC1 [Example 67, (R)-N-[8-(4-Methylpiperazin-1-yl)-1,2,3,4-tetrahydro-2-naphthyl]-4-methylsulfonyloxybenzamide]"
6,177 to 178 °C,"CCc1ccc(C(=O)N[C@@H]2CCc3cccc(N4CCN(C)CC4)c3C2)cc1 [Example 69, (R)-N-[8-(4-Methylpiperazin-1-yl)-1,2,3,4-tetrahydro-2-naphthyl]-4-ethylbenzamide]"
7,189 to 190 °C,"CN1CCN(c2cccc3c2C[C@H](NC(=O)c2ccc(F)cc2)CC3)CC1 [Example 72, (R)-N-[8-(4-Methylpiperazin-1-yl)-1,2,3,4-tetrahydro-2-naphthyl]-4-fluorobenzamide]"
8,200 to 201 °C,"CN1CCN(c2cccc3c2C[C@H](NC(=O)c2ccc(Br)cc2)CC3)CC1 [Example 73, (R)-N-[8-(4-Methylpiperazin-1-yl)-1,2,3,4-tetrahydro-2-naphthyl]-4-bromobenzamide]"
9,204 to 205 °C,"CN1CCN(c2cccc3c2C[C@H](NC(=O)c2ccc(Cl)cc2)CC3)CC1 [Example 74, (R)-N-[8-(4-Methylpiperazin-1-yl)-1,2,3,4-tetrahydro-2-naphthyl]-4-chlorobenzamide]"
10,191 to 192 °C,"CN1CCN(c2cccc3c2C[C@H](NC(=O)c2ccc(Cc4ccccc4)cc2)CC3)CC1 [Example 75, (R)-N-[8-(4-Methylpiperazin-1-yl)-1,2,3,4-tetrahydro-2-naphthyl]-4-benzylbenzamide]"
11,194 to 195 °C,"CN1CCN(c2cccc3c2C[C@H](NC(=O)c2ccc(C(=O)c4ccccc4)cc2)CC3)CC1 [Example 76, (R)-N-[8-(4-Methylpiperazin-1-yl)-1,2,3,4-tetrahydro-2-naphthyl]-4-benzoylbenzamide]"
12,245 to 247 °C,"CN1CCN(c2cccc3c2C[C@H](NC(=O)c2ccc(-n4cccc4)cc2)CC3)CC1 [Example 78, (R)-N-[8-(4-Methylpiperazin-1-yl)-1,2,3,4-tetrahydro-2-naphthyl]-4-(1H-pyrrol-1-yl)benzamide]"
13,151 to 152 °C,"CN1CCN(c2cccc3c2C[C@H](NC(=O)Cc2ccccc2)CC3)CC1 [Example 80, (R)-N-[8-(4-Methylpiperazin-1-yl)-1,2,3,4-tetrahydro-2-naphthyl]phenylacetamide]"
14,137 to 139 °C,"CN1CCN(c2cccc3c2C[C@H](NC(=O)CCCc2ccccc2)CC3)CC1 [Example 82, (R)-N-[8-(4-Methylpiperazin-1-yl)-1,2,3,4-tetrahydro-2-naphthyl]-4-phenylbutanamide]"
15,234 to 235 °C,"CCc1ccc(-c2ccc(C(=O)N[C@@H]3CCc4cccc(N5CCN(C)CC5)c4C3)cc2)cc1 [Example 84, (R)-N-[8-(4-Methylpiperazin-1-yl)-1,2,3,4-tetrahydro-2-naphthyl]-4-(4-ethylphenyl)benzamide]"
16,261 to 262 °C,"CN1CCN(c2cccc3c2C[C@H](NC(=O)c2ccc(-c4ccc(O)cc4)cc2)CC3)CC1 [Example 85, (R)-N-[8-(4-Methylpiperazin-1-yl)-1,2,3,4-tetrahydro-2-naphthyl]-4-(4-hydroxyphenyl)benzamide]"
17,136 to 137 °C,"CN1CCN(c2cccc3c2C[C@H](NC(=O)c2cccc(Oc4ccccc4)c2)CC3)CC1 [Example 87, (R)-N-[8-(4-Methylpiperazin-1-yl)-1,2,3,4-tetrahydro-2-naphthyl]-3-phenoxybenzamide]"
18,117 °C (dec.),"CN1CCN(c2cccc3c2C[C@H](NC(=O)c2cccc(O)c2)CC3)CC1 [Example 88, (R)-N-[8-(4-Methylpiperazin-1-yl)-1,2,3,4-tetrahydro-2-naphthyl]-3-hydroxybenzamide]"
19,179 to 180 °C,"Cc1ccccc1C(=O)N[C@@H]1CCc2cccc(N3CCN(C)CC3)c2C1 [Example 90, (R)-N-[8-(4-Methylpiperazin-1-yl)-1,2,3,4-tetrahydro-2-naphthyl]-2-methylbenzamide]"
20,87 °C (dec.),"CN1CCN(c2cccc3c2C[C@H](NC(=O)c2ccccc2O)CC3)CC1 [Example 92, (R)-N-[8-(4-Methylpiperazin-1-yl)-1,2,3,4-tetrahydro-2-naphthyl]-2-hydroxybenzamide]"

row,SMILES,melting point
1,"CCCCOc1ccc(C(=O)N[C@@H]2CCc3cccc(N4CCN(C)CC4)c3C2)cc1 [Example 70, (R)-N-[8-(4-Methylpiperazin-1-yl)-1,2,3,4-tetrahydro-2-naphthyl]-4-butoxybenzamide]",190 to 191 °C
2,"CCCCOc1ccc(C(=O)N[C@H]2CCc3cccc(N4CCN(C)CC4)c3C2)cc1 [Example 71, (S)-N-[8-(4-Methylpiperazin-1-yl)-1,2,3,4-tetrahydro-2-naphthyl]-4-butoxybenzamide]",190 to 192 °C
